pEC50: −log10 of the molar value. Activity calls are given as the source filed them. The rule behind the calls is not given here.
Assays:
Mu-type opioid receptor [1] = target: T1, Mu-type opioid receptor (Homo sapiens, UniProt P35372); experiment: Agonist activity at human mu opioid receptor expressed in CHOK1 cells coexpressing Galpha15 assessed as increase in intracellular calcium flux in presence of mu opioid receptor antagonist naloxone and incubated for 1 hr measured for 90 secs at 1.5 sec interval by FLIPR assay; assay type: functional, cell-based
Mu-type opioid receptor [2] = target: T1, Mu-type opioid receptor; experiment: Agonist activity at human mu opioid receptor expressed in CHOK1 cells coexpressing Galpha15 assessed as intracellular calcium AUC in presence of mu opioid receptor antagonist naloxone and incubated for 1 hr measured for 90 secs at 1.5 sec interval by FLIPR assay to morphine; assay type: functional, cell-based; parameters: concentration or dose not given beside the values
Mus musculus [3] = experiment: Antinociceptive activity in C57BL/6 mouse model of thermal-induced nociception assessed as inhibition of tail-flick response at 100 mg/kg, iv measured up to 30 to 180 mins in presence of opioid receptor antagonist naloxone at 100 ng/kg, sc by tail flick test; assay type: functional, organism-based
[4] = Toxicity in C57BL/6 mouse at 100 mg/kg, iv measured up to 30 to 180 mins during tail-flick test; assay type: organism-based; settings: in vivo
Mus musculus [5] = experiment: (§1) Antinociceptive activity in C57BL/6 mouse model of thermal-induced nociception assessed as inhibition of tail-flick response by measuring AUC of tail flick test at 100 mg/kg, iv measured up to 30 to 180 mins in presence of 10 mg/kg, sc opioid receptor antagonist naloxone by tail flick test; assay type: functional, organism-based
[6] = Toxicity in iv dosed C57BL/6 mouse assessed as safe dose causing no animal death measured up to 30 to 180 mins during tail-flick test; assay type: organism-based; settings: in vivo
Mus musculus [7] = experiment: Antinociceptive activity in C57BL/6 mouse model of thermal-induced nociception assessed as inhibition of tail-flick response by measuring AUC of tail flick test at 25 to 100 mg/kg, iv measured up to 30 to 180 mins in presence of 10 mg/kg, sc opioid receptor antagonist naloxone by tail flick test; assay type: functional, organism-based
Mus musculus [8] = experiment: Antinociceptive activity in C57BL/6 mouse model of thermal-induced nociception assessed as inhibition of tail-flick response by measuring AUC of tail flick test at 50 mg/kg, iv measured up to 30 to 180 mins in presence of 10 mg/kg, sc opioid receptor antagonist naloxone by tail flick test; assay type: functional, organism-based
Mus musculus [9] = experiment: Antinociceptive activity in C57BL/6 mouse model of thermal-induced nociception assessed as inhibition of tail-flick response at 100 mg/kg, iv measured at 30 mins in presence of opioid receptor antagonist naloxone at 100 ng/kg, sc by tail flick test; assay type: functional, organism-based
Mus musculus [10] = experiment: as §1, with “assessed as naloxone ED50 for inhibition of” for “assessed as inhibition of”; assay type: functional
Mus musculus [11] = experiment: Antinociceptive activity in C57BL/6 mouse model of thermal-induced nociception assessed as inhibition of tail-flick response by measuring AUC of tail flick test at 25 mg/kg, iv measured up to 30 to 180 mins in presence of 10 mg/kg, sc opioid receptor antagonist naloxone by tail flick test; assay type: functional, organism-based
Mus musculus [12] = experiment: Antinociceptive activity in C57BL/6 mouse model of thermal-induced nociception at 100 mg/kg measured at 30 mins post injection by tail flick test; assay type: functional, organism-based
Mus musculus [13] = experiment: Antinociceptive activity in C57BL/6 mouse model of thermal-induced nociception at 100 mg/kg, sc measured up to 30 to 180 mins by tail flick test; assay type: functional, organism-based

T1 sequence (P35372 whole entry): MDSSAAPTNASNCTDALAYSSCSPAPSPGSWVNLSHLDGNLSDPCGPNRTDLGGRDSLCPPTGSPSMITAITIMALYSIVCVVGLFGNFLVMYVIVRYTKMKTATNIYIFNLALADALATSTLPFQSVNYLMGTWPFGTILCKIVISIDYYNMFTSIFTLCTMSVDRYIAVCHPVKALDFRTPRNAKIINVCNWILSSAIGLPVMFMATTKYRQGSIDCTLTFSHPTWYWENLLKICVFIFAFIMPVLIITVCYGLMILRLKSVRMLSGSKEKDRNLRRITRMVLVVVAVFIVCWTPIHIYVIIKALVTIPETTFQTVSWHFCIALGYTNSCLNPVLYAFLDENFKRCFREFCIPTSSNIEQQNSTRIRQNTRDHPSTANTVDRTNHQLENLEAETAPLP

Compound: CCc1cc(Br)ccc1Nc1nc(-c2sc(C)nc2C)cs1
- pEC50 (Mu-type opioid receptor [1]): 5.31
- Activity (Mu-type opioid receptor [2]): 5.9%

Compound: CCc1ccccc1Nc1nc(C)cs1
- pEC50 (Mu-type opioid receptor [1]): < 4.52
- Activity (Mu-type opioid receptor [2]): inactive

Compound: Cc1nc(C)c(-c2csc(Nc3cccc(F)c3C)n2)s1
- pEC50 (Mu-type opioid receptor [1]): 5.00
- Activity (Mu-type opioid receptor [2]): 57.9%

Compound: COc1ccc(Nc2nc(-c3sc(C)nc3C)cs2)c(OC)c1
- pEC50 (Mu-type opioid receptor [1]): 4.72
- Activity (Mu-type opioid receptor [2]): 45.2%

Compound: Cc1nc(C)c(-c2csc(Nc3ccc(Br)cc3C(F)(F)F)n2)s1
- pEC50 (Mu-type opioid receptor [1]): 4.86
- Activity (Mu-type opioid receptor [2]): 32.9%

Compound: CCc1ccccc1Nc1nc(-c2sc(C)nc2C)cs1
- Activity (Mus musculus [3]): Active
- Activity [4]: Non-Toxic
- AUC (Mus musculus [5]): 384 min.sec
- Activity [6]: 100 mg/kg
- Activity (Mus musculus [7]): Dose-dependent effect
- AUC (Mus musculus [8]): 160 min.sec
- Activity (Mus musculus [9]): inactive
- ED50 (Mus musculus [10]): 17.5 mg/kg
- AUC (Mus musculus [11]): 115 min.sec
- Activity (Mus musculus [12]): inactive

Compound: Cc1ccc(Nc2nc(-c3sc(C)nc3C)cs2)c(C)c1
- pEC50 (Mu-type opioid receptor [1]): 5.06
- Activity (Mu-type opioid receptor [2]): 57.2%

Compound: CCc1ccccc1Nc1nc(-c2nccs2)cs1
- pEC50 (Mu-type opioid receptor [1]): < 4.52
- Activity (Mu-type opioid receptor [2]): inactive

Compound: CCc1ccccc1Nc1nc(-c2sc(NC(C)=O)nc2C)cs1
- pEC50 (Mu-type opioid receptor [1]): < 4.52
- Activity (Mu-type opioid receptor [2]): inactive

Compound: Cc1nc(C)c(-c2csc(Nc3ccc(Br)cc3C)n2)s1
- pEC50 (Mu-type opioid receptor [1]): < 4.52
- Activity (Mu-type opioid receptor [2]): inactive

Compound: Cc1cc(C)c(Nc2nc(-c3oc(C)nc3C)cs2)c(C)c1
- pEC50 (Mu-type opioid receptor [1]): 5.41
- Activity (Mu-type opioid receptor [2]): 43.2%

Compound: Cc1nc(C)c(-c2csc(Nc3c(C(C)C)cccc3C(C)C)n2)s1
- pEC50 (Mu-type opioid receptor [1]): < 4.52
- Activity (Mu-type opioid receptor [2]): inactive

Compound: CCc1ccccc1Nc1nc(-c2sc(C)nc2C)c(C)s1
- pEC50 (Mu-type opioid receptor [1]): < 4.52
- Activity (Mu-type opioid receptor [2]): inactive

Compound: Cc1nc(C)c(-c2csc(Nc3ccccc3CC(F)(F)F)n2)s1
- pEC50 (Mu-type opioid receptor [1]): 5.07
- Activity (Mu-type opioid receptor [2]): 72.1%

Compound: C=CCN1CC[C@]23c4c5ccc(O)c4O[C@H]2C(=O)CC[C@@]3(O)[C@H]1C5
- Activity (Mus musculus [13]): inactive

Compound: CCc1ccccc1Nc1nc(-c2oc(C)nc2C)cs1
- pEC50 (Mu-type opioid receptor [1]): 5.48
- Activity (Mu-type opioid receptor [2]): 76.2%

Compound: Cc1nc(C)c(-c2csc(Nc3c(C)cccc3F)n2)s1
- pEC50 (Mu-type opioid receptor [1]): 5.38
- Activity (Mu-type opioid receptor [2]): 32%

Compound: CCc1nc(C)c(-c2csc(Nc3ccccc3CC)n2)s1
- pEC50 (Mu-type opioid receptor [1]): 5.07
- Activity (Mu-type opioid receptor [2]): 32.5%

Compound: CCc1cccc(C)c1Nc1nc(-c2sc(C)nc2C)cs1
- pEC50 (Mu-type opioid receptor [1]): 5.55
- Activity (Mu-type opioid receptor [2]): 38.2%

Compound: COc1ccc(Nc2nc(-c3sc(C)nc3C)cs2)c(C)c1
- pEC50 (Mu-type opioid receptor [1]): 4.85
- Activity (Mu-type opioid receptor [2]): 32.6%

Compound: CCc1ccccc1Nc1ncc(-c2sc(C)nc2C)o1
- pEC50 (Mu-type opioid receptor [1]): 4.88
- Activity (Mu-type opioid receptor [2]): 34.4%

Compound: CCc1ccccc1Nc1nc(-c2sc(N)nc2C)cs1
- pEC50 (Mu-type opioid receptor [1]): < 4.52
- Activity (Mu-type opioid receptor [2]): inactive

Compound: CCc1ccccc1Nc1nc(-c2sc(-c3ccccc3)nc2C)cs1
- pEC50 (Mu-type opioid receptor [1]): < 4.52
- Activity (Mu-type opioid receptor [2]): inactive

Compound: COc1cccc(Nc2nc(-c3sc(C)nc3C)cs2)c1C
- pEC50 (Mu-type opioid receptor [1]): 5.48
- Activity (Mu-type opioid receptor [2]): 27.2%

Compound: Cc1cc(C)c(Nc2nc(-c3sc(C)nc3C)cs2)c(C)c1
- pEC50 (Mu-type opioid receptor [1]): 5.21
- Activity (Mu-type opioid receptor [2]): 52%

Compound: Cc1nc(C)c(-c2csc(N)n2)s1
- pEC50 (Mu-type opioid receptor [1]): < 4.52
- Activity (Mu-type opioid receptor [2]): inactive
